Measurements from US7371812B2, “Antiangiogenic peptides” (Children's Medical Center Corporation, priority 2003, dated 2008).

Assays:
[1] = system: Capillary endothelial cells (EC), isolated from bovine adrenal cortex; assay: bFGF-stimulated capillary EC proliferation assay; type: cell-based
Method: Capillary endothelial cells (EC), isolated from bovine adrenal cortex, were a kind gift of Dr. Judah Folkman (Children's Hospital, Boston) and were maintained in DMEM (Gibco) supplemented with 10% calf serum (HyClone) and 3 ng/ml bFGF, and grown at 37° C. in 10% CO2. Capillary EC proliferation was measured as previously reported by us (Moses et al., 1990; Moses et al., 1992; O'Reilly et al., 1994; Moses et al., 1999) using a modification of the method of Connolly and coworkers (and verified by cell counting using a Coulter Counter) (Connolly et al., 1986). Briefly, capillary EC were plated on pre-gelatinized 96 well plates at a density of 2,000 cells per well in DMEM supplemented with 5% calf serum and allowed to attach for 24 hours. The next day, cells were treated with fresh media with or without 1 ng/ml bFGF and challenged with the test proteins at various concentrations. All samples were tested in duplicate. Control wells contained cell treated with media alone or media with bFGF. After 72 hours, the media was removed and the cells were lysed in buffer containing Triton X-100 and the phosphatase substrate p-nitrophenyl phosphate. After a two-hour incubation at 37° C., NaOH was added to each well to terminate the reaction and cell density was determined by calorimetric analysis using a SpectraMax 190 multiwell plate reader (Molecular Devices).

[2] = system: embryonic angiogenesis in the chick chorioallantoic membrane; assay: Chick chorioallantoic membrane assay (CAM); type: in vivo; settings: methylcellulose disc, 48 hours
Method: The chick CAM assay was conducted as previously reported by us (Moses et al., 1990; Moses et al., 1992; O'Reilly et al., 1994; Moses et al., 1999; Fang et al., 2000) Briefly, three day old chick embryos were removed from their shells and incubated in plastic Petri dishes for three days. On embryonic day 6, samples and controls mixed into methylcellulose discs were applied to the surfaces of developing CAMs, above the dense subectodermal plexus. After 48 hours of incubation, the eggs were examined for vascular reactions under a dissecting scope (60×) and photographed. All determinations were made by 3 independent members of the laboratory, in a double-blinded fashion.

Capillary EC [3] = assay: Cell cycle analysis by flow cytometry; type: cell-based, bovine; settings: synchronized, bFGF-stimulated, 16 hours; for cells in G1 / cells in G2/M: IC50 dose of Loop 6 or equivalent dose of T2-Tail
Method: Capillary EC were plated at a density of 100,000 cells per plate unto pre-gelatinized 60 mm dishes in DMEM supplemented with 5% calf serum and allowed to attach overnight. The next day, the media was replaced with DMEM supplemented with 0.4% calf serum in order to synchronize the cells by serum starvation. After 36 hours, synchronized cells were stimulated with DMEM containing 5% calf serum plus 1 ng/ml bFGF, and then treated with an IC50 dose of Loop 6 or an equivalent dose of the T2-Tail peptide as control. After 16 hours, the cells were rinsed with PBS, trypsinized and collected by centrifugation. Pelleted cells were rinsed again with PBS and resuspended in 1 ml of 80% ethanol in PBS, and stored at −20° C. overnight. The next morning, cells were collected by centrifugation and resuspended in 500 μl of staining solution (0.1% sodium citrate, 100 μg/ml RNAse A, 0.1% Nonidet-P40, 50 μg/ml propidium iodide). After 30 minutes, DNA content of the cells and the percentages of cells in the various stages of the cell cycle were determined using a FACSVantage SE (Becton Dickinson, Franklin Lanes, N.J.). FACS analysis was performed at the Howard Hughes Institute of Medicine FACS Core Facility at Children's Hospital. All samples were tested in at least duplicate. Histograms of representative experiments for each test condition were created using WinMDI 2.8 (The Scripps Research Institute, La Jolla, Calif.).

[4] = system: activated type I collagenase; assay: 14C-Collagen Film Assay of MMP-inhibitory activity; type: biochemical; settings: T2C and EAT2N up to approximately 100-fold the IC50 of T2N
Method: MMP-inhibitory activity was assessed using a quantitative ^14C-Collagen Film Assay, as previously described by us (Moses et al., 1990). Briefly, ^14C-labeled collagen was added to 96 well plates and allowed to polymerize. To determine inhibitory activity, wells were treated with a known amount of activated type I collagenase plus test sample or with collagenase alone, and the plates incubated at 37° C. for 2.5 hours to allow for release of ^14C by the enzyme. Supernantants were then analyzed in a Wallac Scintillation Counter, and percent inhibition of collagenolytic activity was calculated. An IC50 was defined as the amount of protein necessary to inhibit the proteolytic activity of collagenase by 50%.

[5] = system: bFGF-driven corneal neovascularization; assay: Mouse corneal pocket assay; type: in vivo
Method: In vivo inhibition of angiogenesis was also tested using the mouse corneal pocket assay as previously described (O'Reilly et al., 1994; Moses et al., 1999). […] Each animal carried a pellet containing the test sample plus bFGF in one eye, and a control bFGF pellet in the contralateral eye. After six days, angiogenesis was evaluated using a slit lamp microscope, and each eye was photographed. The area of neovascularization for each cornea was calculated from the length of the vessels (VL) invading the cornea as well as the clock hours (CH) covered as described by the formula VL×CH×0.0628.

Capillary EC [6] = assay: Apoptosis assay (TUNEL, DAPI); type: cell-based, bovine; settings: bFGF-stimulated, 6 hours; Loop 6 at IC50 dose, wortmannin 100 mM
Method: In situ detection of cell death was determined using terminal deoxynucleotidyl transferase dUTP nick-end labeling (TUNEL) following manufacturer's instructions (In Situ Cell Death Detection Kit, Roche Applied Science, Indianapolis, Ind.). Capillary EC were plated at a density of 10,000 cells per well on pre-gelatinized Lab-Tek Chamber Slides (Nalge Nunc, Naperville, Ill.) in DMEM supplemented with 5% calf serum and allowed to attach for 24 hours. The next day, cells were treated with fresh media supplemented with 1 ng/ml bFGF and challenged with an IC50 dose of Loop 6 or […] wortmannin, a dose previously reported to induce apoptosis of capillary E (Flusberg et al., 2001). Cells stimulated with bFGF alone were also used as controls. All samples were tested in duplicate. After 6 hours, the cells were rinsed with PBS and then fixed in 4% paraformaldehyde for 1 hour at room temperature. Fixed cells were again rinsed with PBS and permeabilised with 0.1% Triton X-100 in 0.1% sodium citrate on ice for 2 minutes. After two more rinses in PBS, the cells were exposed to TUNEL reaction mixture and incubated at 37° C. […] Apoptotic nuclei were detected using a Nikon Eclipse TE300 microscope (Nikon Instruments, Melville, N.Y.).

[7] = system: Cyclin D1, Cyclin E, Cyclin A and p27 in capillary EC lysates; assay: Immunoblot analyses of cell cycle associated proteins; type: cell-based, bovine; settings: IC50 dose, 16 hours, versus bFGF-stimulated controls
Method: Western analyses of capillary EC lysates were performed as previously described by us (Moses et al., 1999; Yan et al., 2001). Capillary EC were plated, synchronized and treated with an IC50 dose of Loop 6 as described above for cell cycle analysis. After 16 hours, cells exposed to bFGF alone or bFGF and Loop 6 were rinsed in PBS and lysed directly in the culture dish by addition of 500 μl of lysis buffer (1% SDS in 10 mM Tris-Hcl, pH 7.4). Collected lysates were boiled for 5 minutes, mixed by vortexing and then placed on ice. Samples were repeatedly passed through a 22-gauge syringe needle in order to shear the DNA. The samples were then centrifuged, and the supernatant collected. Protein concentration of the lysates was determined using the MicroBCA method (Pierce, Rockford, Ill.). Equal amounts of protein were loaded unto 12% SDS-PAGE gels under reducing conditions, resolved by electrophoresis and subsequently transferred to nitrocellulose using a TransBlot apparatus (BioRad). […] Labeled proteins were detected using Supersignal West Pico Chemiluminescence Substrate (Pierce).

[8] = system: vascular smooth muscle cells; assay: Vascular smooth muscle cell proliferation (data not shown); type: cell-based
Capillary EC [9] = assay: FGF competition assay; type: cell-based, bovine; settings: IC50 dose of Loop 6, increasing concentrations of bFGF
Text: To further map the anti-proliferative activity of TIMP-2 within T2C, three peptides corresponding to various smaller domains of T2C were synthesized, purified and tested for their ability to inhibit bFGF-stimulated capillary EC proliferation in vitro. These domains and are depicted in FIG. 6A. […] Given that Loop 6 inhibits bFGF-driven endothelial cell proliferation, we asked whether Loop 6 could directly compete with bFGF.

T2-Tail: 19 amino acid peptide corresponding to the carboxy-terminal tail of TIMP-2, sequence AWYRGAAPPKQEFLDIEDP (SEQ ID NO: 3) [reference compound]
effect on bFGF-stimulated capillary EC proliferation ([1]; 1 ng/ml bFGF, 72 hours): had no effect
effect on neovascularization in the CAM [2]: Neither Loop 5 nor the T2-Tail peptides had any significant effect on neovascularization
cells in G1 (Capillary EC [3]): 27.8%
cells in G2/M (Capillary EC [3]): 34.6%

Loop 5: 10 amino acid peptide corresponding to Loop 5 of TIMP-2, sequence TRCPMIPCYI (SEQ ID NO: 2) [reference compound]
effect on bFGF-stimulated capillary EC proliferation ([1]; 1 ng/ml bFGF, 72 hours): stimulated the proliferation of capillary EC
effect on neovascularization in the CAM [2]: Neither Loop 5 nor the T2-Tail peptides had any significant effect on neovascularization

VIRAK: control peptide of sequence VIRAK (SEQ ID NO: 4), conserved sequence in the N-terminal domain of all TIMPs [reference compound]
effect on bFGF-stimulated capillary EC proliferation ([1]; 1 ng/ml bFGF, 72 hours): no inhibition of capillary EC proliferation

Loop 6: 24 amino acid peptide corresponding to Loop 6 of TIMP-2, sequence ECLWMDWVTEKNINGHQAKFFACI (SEQ ID NO: 1)
inhibition of MMP activity [4]: neither T2C nor Loop 6 inhibit MMP activity
effect on bFGF-stimulated capillary EC proliferation ([1]; 1 ng/ml bFGF, 72 hours): significantly inhibited capillary EC proliferation
effect on neovascularization in the CAM [2]: resulted in avascular zones at doses comparable to those tested for T2C
suppression of bFGF-stimulated neovascularization ([5]; 3 μg/eye, versus contralateral control eyes): ~80%
induction of apoptosis (apoptotic nuclei) (Capillary EC [6]): not an inducer of apoptosis
cells in G1 (Capillary EC [3]): 45.6%
cells in G2/M (Capillary EC [3]): 9.53%
number of cells in S-phase (Capillary EC [3]; IC50 dose): did not change significantly
level of p27 [7]: significantly increased
levels of Cyclins D1, E or A [7]: No significant differences
proliferation of vascular smooth muscle cells [8]: did not inhibit the proliferation of vascular smooth muscle cells
competition with bFGF (Capillary EC [9]): not abrogated by increasing doses of bFGF

B1: T2C: recombinant His-tagged TIMP-2 domain composed of the three C-terminal disulfide-bonded loops (~8.5 kD), expressed in Pichia pastoris (protein)
chain: CKITRCPMIPCYISSPDECLWMDWVTEKNINGHQAKFFACIKRSDGSCAWYRGAAPPKQEFLDIEDP
modifications: disulfide (positions not given here); also: His tag, disulfide pairing not given here
notes: recombinant His-tagged TIMP-2 domain composed of the three C-terminal disulfide-bonded loops (~8.5 kD), expressed in Pichia pastoris
inhibition of MMP activity [4]: No significant inhibition of MMP activity
cytotoxicity to capillary EC [1]: no evidence of cytotoxicity
IC50 ([1]; 1 ng/ml bFGF, 72 hours, read-out: IC50 of inhibition of capillary EC proliferation): ~140 nM
effect on neovascularization in the CAM [2]: decrease in neovascularization
lowest dose producing avascular zones [2]: 112 pmol per egg
reduction of bFGF-driven corneal neovascularization ([5]; 5 μg/eye, versus contralateral control eye with only bFGF, six days): 87%
